The results in this text go back to US20230181482A1, “LIPIDS FOR DELIVERY OF NUCLEIC ACID SEGMENTS” (AstraZeneca AB, priority 2021, published 2023).

One data set relates to Female BALB/c mice. Description: eGFP expression in the liver at 24 hours after intravenous administration of LNP formulations to mouse (ELISA). It is filed as in vivo. Conditions: LNP N/P 3:1, DMPE-PEG2000. From the text: Female BALB/c mice were purchased (SPF (Beijing) Laboratory Animal Technology Co. Ltd.) and on arrival were caged in groups of 4 on corncob bedding, with normal diet and were provided tap drinking water ad libitum that was purified and autoclaved before being offered to the animal. The environment was maintained at a target temperature of […] and relative humidity of 40-80%, with a 12-hour light/dark cycle. Animals were acclimatised to the housing conditions for at least 7 days prior to any experimental procedures and were approximately 6-8 weeks of age at the start of dosing
Animals were assigned to respective groups such that the mean body weights for each treatment groups will be equal. N=4 for each treatment group.
Formulations 1, 3, 4, 5, and 6 from Example 58 were each dosed intravenously: Each mouse was removed from its cage and restrained, and then dosed with a slow IV bolus of a formulation in the lateral tail vein at a dose […] of 0.3 mg/kg.
All animals were sacrificed 24 hours after dosing and flowing blood sampling the liver for the animals dosed by the IV route and the liver and muscle at the dose site for the IM dosed animals were harvested for eGFP analysis by ELISA.
Additional LNP formulations were prepared according to the procedures described in Example 46. These formulations were tested using the same protocol as described herein. The results of eGFP expression in the liver at 24 hours after intravenous administration of the formulations were summarized in Tables 3, 4, 5 and 6 below.
A general note: ELISA stands for enzyme-linked immunosorbent assay.

Data set [1] can be described thus: mRNA encapsulation efficiency of LNP formulations (Quant-it Ribogreen assay with Triton-X100). Particulars: N/P ratio 3:1, DMPE-PEG2000. It is filed as physicochemical. The protocol:
(§1) A solution of eGFP mRNA (purchased from TriLink Biotechnologies) in citrate buffer was prepared by mixing mRNA dissolved in MilliQ-water, 100 mM citrate buffer (pH 3) and MilliQ-water to give a solution of 50 mM citrate. Lipid solution in ethanol (99.5%) was prepared with four different lipid components: ionizable lipid (see Table 1); cholesterol (Sigma-Aldrich); DSPC (distearoyl phosphatidyl choline, Avanti Polar Lipids Inc); and a polymer-conjugated lipid (see Table 1). The ratio of lipids in all experiments was ionizable lipid/cholesterol/DSPC/polymer-conjugated lipid (50/38.5/10/1.5 mol %). The total concentration of lipids in all experiments was 12.5 mM.
(§2) The mRNA and lipid solutions were mixed in a NanoAssemblr (Precision Nanosystems, Vancouver, BC, Canada) microfluidic mixing system at a mixing ratio of Aq:EtOH=3:1 and a constant flow rate of 12 mL/min. The mRNA in citrate buffer solution was prepared such that, at the time of mixing the ratio between the nitrogen atoms on the ionizable lipid and phosphorus atoms (N/P ratio) on the mRNA chain was either 3:1 or 6:1 (see Table 1).
The final mRNA concentration and encapsulation efficiency percentage (% EE) was measured by Quant-it Ribogreen Assay Kit (ThermoFischer Scientific Inc.) using Triton-X100 to disrupt the LNPs. The mRNA encapsulation efficiency was determined according to the following equation: […]

A short description of data set [2]: LNP particle size by dynamic light scattering (Zetasizer Nano ZS). It is filed as physicochemical. Particulars: N/P ratio 3:1, DMPE-PEG2000. The method, then: as §1, §2
The first 0.2-0.35 mL and the last 0.05-0.1 mL of the LNP suspension prepared were discarded while the rest of the volume was collected as the sample fraction. The size of the mRNA lipid nanoparticles was determined by dynamic light scattering measurements using a Zetasizer Nano ZS from Malvern Instruments Ltd, giving directly the z-average particle diameter. The number-weighted particle size distributions and averages were calculated using a particle refractive index of 1.45.

For `CCCCCC(CCCCC)CCOC(=O)CCCCCC(CCCCCC(=O)OCCC(CCCCC)CCCCC)NC1CC2(COC2)C1` [Compound 13, bis(3-pentyloctyl) 7-((2-oxaspiro[3.3]heptan-6-yl)amino)tridecanedioate], the “Liver eGFP protein (ng/g tissue)” value in the data set with Female BALB/c mice (Table 3, 0.3 mg/kg) was 8798.8 ng/g tissue. Also, the “% EE” value in data set [1] (Table 3) turned out to be 93%. Moreover, in data set [2] (Table 3), the “<d>N (nm)” value is recorded as 49 nm and the “<d>Z (nm)” value is 66 nm.
`CCCCCCCCC(CCCCCCCC)OC(=O)CCCCCCCC(CCCCCCCC(=O)OC(CC)CCCC)NCC1CCOC1` (centres unmarked) [Compound 47, 1-(heptadecan-9-yl) 17-(heptan-3-yl) 9-(((tetrahydrofuran-3-yl)methyl)amino)heptadecanedioate]: the “Liver eGFP protein (ng/g tissue)” value in the data set with Female BALB/c mice (Table 6, 0.3 mg/kg) was 13883.6 ng/g tissue. The “% EE” value in data set [1] (Table 6) was 89%. In data set [2] (Table 6), the “<d>N (nm)” value was 62 nm and the “<d>Z (nm)” value is on record as 82 nm.
On to `CCCCCCC(CCCCCC)COC(=O)CCCCCCCC(CCCCCCCC(=O)OCC(CCCCCC)CCCCCC)NC1CC2(COC2)C1` [Compound 34, Bis(2-hexyloctyl) 9-((2-oxaspiro[3.3]heptan-6-yl)amino)heptadecanedioate], for which the “Liver eGFP protein (ng/g tissue)” value in the data set with Female BALB/c mice (Table 4, 0.3 mg/kg) is 11015.4 ng/g tissue. In addition, the “% EE” value in data set [1] (Table 4) is 96%. In addition, in data set [2] (Table 4), the “<d>N (nm)” value was 51 nm and the “<d>Z (nm)” value turned out to be 68 nm.
Regarding `CCCCCCCCCCC(C)OC(=O)CCCCCC(CCCCCCCC(=O)OC(CCCCCCCC)CCCCCCCC)NC1CC2(COC2)C1` (centres unmarked) [Compound 56, 1-(dodecan-2-yl) 15-(heptadecan-9-yl) 7-((2-oxaspiro[3.3]heptan-6-yl)amino)pentadecanedioate], the “Liver eGFP protein (ng/g tissue)” value with Female BALB/c mice (Table 6, 0.3 mg/kg) is reported as 10270.4 ng/g tissue. The “% EE” value in data set [1] (Table 6) was 96%. For the same compound, in data set [2] (Table 6), the “<d>N (nm)” value was determined as 58 nm and the “<d>Z (nm)” value was 73 nm.
For `CCCCCCCCC(CCCCCCCC)OC(=O)CCCCCCCC(CCCCCCCC(=O)OC(C)(C)CCCCCCCC)NC1CC2(COC2)C1` (centres unmarked) [Compound 53, 1-(heptadecan-9-yl) 17-(2-methyldecan-2-yl) 9-((2-oxaspiro[3.3]heptan-6-yl)amino)heptadecanedioate], in that order: 6947.2 ng/g tissue, 96%, 50 nm and 65 nm.
Consider `CCCCCCCC(CCCCCCC)COC(=O)CCCCCCC(CCCCCCC(=O)OCC(CCCCCCC)CCCCCCC)NC1CC2(COC2)C1` [Compound 28, Bis(2-heptylnonyl) 8-((2-oxaspiro[3.3]heptan-6-yl)amino)pentadecanedioate], for which the “Liver eGFP protein (ng/g tissue)” value in the data set with Female BALB/c mice (Table 4, 0.3 mg/kg) is 9557.1 ng/g tissue. For the same compound, the “% EE” value in data set [1] (Table 4) was 97%. In addition, in data set [2] (Table 4), the “<d>N (nm)” value is listed as 80 nm and the “<d>Z (nm)” value came out at 129 nm.
Turning to `CCCCCC(CCCCC)CCOC(=O)CCCCCCCCC(CCCCCCCCC(=O)OCCC(CCCCC)CCCCC)NC1CC2(COC2)C1` [Compound 14, bis(3-pentyloctyl) 10-((2-oxaspiro[3.3]heptan-6-yl)amino)nonadecanedioate], in the data set on Female BALB/c mice (Table 3, 0.3 mg/kg), the “Liver eGFP protein (ng/g tissue)” value came to 8056.3 ng/g tissue. Moreover, the “% EE” value in data set [1] (Table 3) stood at 95%. For the same compound, in data set [2] (Table 3), the “<d>N (nm)” value was 61 nm and the “<d>Z (nm)” value was determined as 77 nm.
As to `CCCCCC(CCCCC)CCOC(=O)CCCCCCCCCC(CCCCC(=O)OCCC(CCCCC)CCCCC)NC1CC2(COC2)C1` (centres unmarked) [Compound 49, bis(3-pentyloctyl) 6-((2-oxaspiro[3.3]heptan-6-yl)amino)hexadecanedioate], in the data set with Female BALB/c mice (Table 6, 0.3 mg/kg), the “Liver eGFP protein (ng/g tissue)” value was 3934.6 ng/g tissue. The “% EE” value in data set [1] (Table 6) amounted to 94%. Also, in data set [2] (Table 6), the “<d>N (nm)” value was found to be 55 nm and the “<d>Z (nm)” value is listed as 72 nm.
Turning to `CCCCCCCCC(C)OC(=O)CCCCCCCC(CCCCCCCC(=O)OC(CCCCCCCC)CCCCCCCC)NCC1CCOC1` (centres unmarked) [Compound 36, 1-(decan-2-yl) 17-(heptadecan-9-yl) 9-(((tetrahydrofuran-3-yl)methyl)amino)heptadecanedioate], the “Liver eGFP protein (ng/g tissue)” value in the data set with Female BALB/c mice (Table 5, 0.3 mg/kg) amounted to 6133.5 ng/g tissue. Besides, the “% EE” value in data set [1] (Table 5) is 96%. In data set [2] (Table 5), the “<d>N (nm)” value was 57 nm and the “<d>Z (nm)” value is on record as 73 nm.
Regarding `CCCCCC(CCCCC)CCOC(=O)CCCCCCCC(CCCCCCCC(=O)OCCC(CCCCC)CCCCC)NCC1COCCO1` (centres unmarked) [Compound 9, bis(3-pentyloctyl) 9-(((1,4-dioxan-2-yl)methyl)amino)heptadecanedioate], in the data set on Female BALB/c mice (Table 3, 0.3 mg/kg), the “Liver eGFP protein (ng/g tissue)” value is recorded as 3160.9 ng/g tissue. Besides, in data set [1] (Table 3), the “% EE” value is 93%. In data set [2] (Table 3), the “<d>N (nm)” value is on record as 61 nm and the “<d>Z (nm)” value is 81 nm.
As to `CCCCCC(CCCCC)CCOC(=O)CCCCCC(CCCCCC(=O)OCCC(CCCCC)CCCCC)NC1CCOCC1` [Compound 45, bis(3-pentyloctyl) 7-((tetrahydro-2H-pyran-4-yl)amino)tridecanedioate], the “Liver eGFP protein (ng/g tissue)” value in the data set with Female BALB/c mice (Table 4, 0.3 mg/kg) was 9082.2 ng/g tissue. In addition, the “% EE” value in data set [1] (Table 4) is recorded as 88%. Besides, in data set [2] (Table 4), the “<d>N (nm)” value came out at 60 nm and the “<d>Z (nm)” value was found to be 75 nm.
For `CCCCCCCCC(CCCCCCCC)OC(=O)CCCCCCCC(CCCCCCCC(=O)OCCC(C)CCCCCC)NCC1CCOCC1` (centres unmarked) [Compound 43, 1-(heptadecan-9-yl) 17-(3-methylnonyl) 9-(((tetrahydro-2H-pyran-4-yl)methyl)amino)heptadecanedioate], the “Liver eGFP protein (ng/g tissue)” value with Female BALB/c mice (Table 5, 0.3 mg/kg) was determined as 2590.9 ng/g tissue. The “% EE” value in data set [1] (Table 5) is recorded as 95%. Further, in data set [2] (Table 5), the “<d>N (nm)” value stood at 62 nm and the “<d>Z (nm)” value was determined as 79 nm.
`CCCCCCCCC(CCCCCCCC)OC(=O)CCCCCCC(CCCCCCC(=O)OCCCCCCCC(C)C)NC1CC2(COC2)C1` (centres unmarked) [Compound 26, 1-(heptadecan-9-yl) 15-(8-methylnonyl) 8-((2-oxaspiro[3.3]heptan-6-yl)amino)pentadecanedioate]: the “Liver eGFP protein (ng/g tissue)” value with Female BALB/c mice (Table 4, 0.3 mg/kg) is listed as 824.8 ng/g tissue. The “% EE” value in data set [1] (Table 4) was found to be 94%. In data set [2] (Table 4), the “<d>N (nm)” value was 50 nm and the “<d>Z (nm)” value is 75 nm.
On to `CCCCCCCCC(CC)OC(=O)CCCCCCCC(CCCCCCCC(=O)OC(CCCCCCCC)CCCCCCCC)NCC1CCOCC1` (centres unmarked) [Compound 39, 1-(heptadecan-9-yl) 17-(undecan-3-yl) 9-(((tetrahydro-2H-pyran-4-yl)methyl)amino)heptadecanedioate], for which the “Liver eGFP protein (ng/g tissue)” value with Female BALB/c mice (Table 5, 0.3 mg/kg) was 3383.8 ng/g tissue. In addition, the “% EE” value in data set [1] (Table 5) amounted to 97%. In data set [2] (Table 5), the “<d>N (nm)” value came to 55 nm and the “<d>Z (nm)” value was determined as 69 nm.
For `CCCCCCCCC(CCCCCCCC)OC(=O)CCCCCCCC(CCCCCCCC(=O)OCC(C)CCCCCCC)NC1CC2(COC2)C1` (centres unmarked) [Compound 22, 1-(heptadecan-9-yl) 17-(2-methylnonyl) 9-((2-oxaspiro[3.3]heptan-6-yl)amino)heptadecanedioate], the “Liver eGFP protein (ng/g tissue)” value in the data set with Female BALB/c mice (Table 5, 0.3 mg/kg) amounted to 4570.6 ng/g tissue. For the same compound, in data set [1] (Table 5), the “% EE” value stood at 95%. Further, in data set [2] (Table 5), the “<d>N (nm)” value is 63 nm and the “<d>Z (nm)” value is listed as 90 nm.
For the compound `CCCCCCCCC(CCCCCCCC)OC(=O)CCCCCCCC(CCCCCCCC(=O)OCC1CC1CCCCCC)NCC1COC1` (centres unmarked) [Compound 51, 1-(heptadecan-9-yl) 17-((2-hexylcyclopropyl)methyl) 9-((oxetan-3-ylmethyl)amino)heptadecanedioate], in the data set with Female BALB/c mice (Table 6, 0.3 mg/kg), the “Liver eGFP protein (ng/g tissue)” value is given as 3473.8 ng/g tissue. Moreover, the “% EE” value in data set [1] (Table 6) is recorded as 95%. Further, in data set [2] (Table 6), the “<d>N (nm)” value was determined as 53 nm and the “<d>Z (nm)” value is 67 nm.
As to `CCCCCCCCC(CC)OC(=O)CCCCCCCC(CCCCCCCC(=O)OC(CCCCCCCC)CCCCCCCC)NCC1CCOC1` (centres unmarked) [Compound 40, 1-(heptadecan-9-yl) 17-(undecan-3-yl) 9-(((tetrahydrofuran-3-yl)methyl)amino)heptadecanedioate], the “Liver eGFP protein (ng/g tissue)” value in the data set on Female BALB/c mice (Table 5, 0.3 mg/kg) worked out at 3658.4 ng/g tissue. Further, the “% EE” value in data set [1] (Table 5) amounted to 97%. Further, in data set [2] (Table 5), the “<d>N (nm)” value amounted to 53 nm and the “<d>Z (nm)” value is reported as 70 nm.
